≈ marks a conversion by molar mass, not a printed value.
Legend:
Enterococcus faecalis [1] = experiment: MIC, broth microdilution (CLSI); format: cell-based
Description: (§1) The solvent for all of the compounds was deionized water (DIW), and all of the compounds dissolved in the solvent. The stock solutions were allowed to stand in DIW for one hour at room temperature prior to testing to allow time for auto-sterilization.
(§2) The test organisms were originally received from clinical sources, or from the American Type Culture Collection. When received, the organisms were sub-cultured onto an appropriate agar medium. Following incubation, colonies were harvested from these plates and cell suspensions prepared and frozen at −80° C. On the day prior to assay, a frozen vial of each culture was thawed and the contents were streaked for isolation onto either Tryptic Soy Agar (Becton Dickinson, Sparks, Md.) or Tryptic Soy Agar (Enhanced Hemolysis; Becton Dickinson) supplemented with 5% sheep blood for streptococci. The agar plates were incubated overnight at 35° C. Staphylococcus aureus ATCC 29213 and Enterococcus faecalis ATCC 29212 were included as quality control isolates in the assay.
(§3) The test medium for the broth microdilution testing was Mueller Hinton II broth (MHB II; BBL# 212322, Lot # 6024003, Becton Dickinson). The broth was prepared at 1.05× normal weight/volume to offset the 5% volume of the drug solution in the final test plates.
(§4) CLSI guidelines recommend that Mueller-Hinton II broth be adjusted to contain 50 mg/L of Ca^++ ions for proper daptomycin MIC results. Since Mueller-Hinton II broth has already been adjusted by the manufacturer to contain approximately 25 mg/L of Ca^++ ions, an additional 25 mg/L of Ca^++ ions was adjusted with 10 mg/mL of CaCl2.2H2O (Lot# 084K0215; Sigma-Aldrich) added at a rate of 0.1 mL/L of broth, for each desired increment of 1 mg/L. This supplemented Mueller-Hinton II broth was used only in wells containing daptomycin.
(§5) MIC values were determined using a broth microdilution method as recommended by the Clinical and Laboratory Standards Institute (Clinical and Laboratory Standards Institute^a. Methods for Dilution Antimicrobial Susceptibility Tests for Bacteria That Grow Aerobically; Approved Standard-Seventh Edition. Clinical and Laboratory Standards Institute document M7-A7 [ISBN 1-56238-587-9]. Clinical and Laboratory Standards Institute, 940 West Valley Road, Suite 1400, Wayne, Pa. 19087-1898 USA, 2006). Automated liquid handlers (Multidrop 384, Labsystems, Helsinki, Finland; Biomek 2000 and Multimek 96, Beckman Coulter, Fullerton Calif.) were used to conduct serial dilutions and make liquid transfers.
(§6) Wells of two standard 96-well microdilution plates (Falcon 3918; Becton Dickinson) were filled with 150 μL of […] using the Multidrop 384. These plates were used to prepare the drug “mother plates” that provided the serial drug dilutions for replicate “daughter plates”. The Biomek 2000 was used to transfer 150 μl of each stock solution from the wells of column 1 of a deep well plate to the corresponding wells in column 1 of the mother plate and to make eleven 2-fold serial dilutions in the mother plates. The wells of column 12 contained no drug and were the organism growth control wells. Each mother plate has the capacity to create a total of 12 daughter plates.
(§7) The daughter plates were loaded with 180 μL of one of the media described above using the Multidrop 384. The wells of the daughter plates ultimately contained 180 μL of MHB II, 10 μL of drug solution, and 10 μL of bacterial inoculum prepared in broth appropriate to the test organism (1.05×). The daughter plates were prepared on the Multimek 96 instrument, which transferred 10 μL of drug solution from each well of the mother plate to each corresponding well of each daughter plate in a single step. […]

[2] = tested on: Staphylococcus epidermidis; experiment: MIC, broth microdilution (CLSI); format: cell-based
Description: as §1, §2, §3, §4, §5, §6, §7

Enterococcus faecium = experiment: MIC, broth microdilution (CLSI); format: cell-based
Description: (§8) The stock solutions were allowed to stand in DIW for one hour at room temperature prior to testing to allow time for auto-sterilization.
as §2, §3, §4, §5, §6
(§9) The daughter plates were loaded with 180 μL of one of the media described above using the Multidrop 384. The wells of the daughter plates ultimately contained 180 μL of MHB II, 10 μL of drug solution, and 10 μL of bacterial inoculum prepared in broth appropriate to the test organism (1.05×). The daughter plates were prepared on the Multimek 96 instrument, which transferred 10 μL of drug solution from each well of the mother plate to each corresponding well of each daughter plate in a single step.

Staphylococcus aureus [3] = experiment: MIC, broth microdilution (CLSI); format: cell-based
Description: as §8, §2, §3, §4, §5, §6, §9

Streptococcus pneumoniae = experiment: MIC, broth microdilution (CLSI); format: cell-based
Description: as §1, §2, §3
For streptococci, lysed horse blood (Lot # H88621; Cleveland Scientific, Bath, Ohio) was added to the MHB II at a final concentration of 2%. […]
as §5, §6, §9
Standardized inoculum of each organism was prepared following Clinical and Laboratory Standards Institute (Clinical and Laboratory Standards Institute^b. Performance Standards for Antimicrobial Susceptibility Testing; Sixteenth Informational Supplement. CLSI document M100-S16 [ISBN 1-56238-588-7]. Clinical and Laboratory Standards Institute, 940 West Valley Road, Suite 1400, Wayne, Pa. 19087-1898 USA, 2006) methods. The inoculum for each organism was dispensed into sterile reservoirs divided by length (Beckman Coulter), and the Biomek 2000 was used to inoculate the plates. […]

Streptococcus pyogenes = experiment: MIC, broth microdilution (CLSI); format: cell-based
Description: as §1, §2, §3
For streptococci, lysed horse blood (Lot # H88621; Cleveland Scientific, Bath, Ohio) was added to the MHB II at a final concentration of 2%.
as §4, §5, §6, §7

Enterococcus faecalis [4] = settings: quality control range for Enterococcus faecalis ATCC 29212 (# 101); cited from earlier work
Staphylococcus aureus [5] = settings: quality control range for Staphylococcus aureus ATCC 29213 (# 100); cited from earlier work
Enterococci = experiment: MIC, broth microdilution, summary over Enterococci; format: cell-based; settings: against Enterococci
Description: as §1
as §2, with “Staphylococcus aureus ATCC 29213 and Enterococcus faecalis ATCC 29212 were included as quality control isolates in the assay.” left out
as §5, with “Automated liquid handlers (Multidrop 384, Labsystems, Helsinki, Finland; Biomek 2000 and Multimek 96, Beckman Coulter, Fullerton Calif.) were used to conduct serial dilutions and make liquid transfers.” left out

staphylococci = experiment: MIC, broth microdilution, summary over staphylococci; format: cell-based; settings: against staphylococci
Description: as §1
as §2, with “Staphylococcus aureus ATCC 29213 and Enterococcus faecalis ATCC 29212 were included as quality control isolates in the assay.” left out
as §5, with “Automated liquid handlers (Multidrop 384, Labsystems, Helsinki, Finland; Biomek 2000 and Multimek 96, Beckman Coulter, Fullerton Calif.) were used to conduct serial dilutions and make liquid transfers.” left out

[6] = Streptococcus pyogenes Micromyx # 942, macrolide^R

Molecule: CN[C@H](CC(C)C)C(=O)N[C@H]1C(=O)N[C@@H](CC(N)=O)C(=O)N[C@H]2C(=O)N[C@H]3C(=O)N[C@H](C(=O)N[C@H](C(=O)O)c4cc(O)cc(O)c4-c4cc3ccc4O)[C@H](O)c3ccc(c(Cl)c3)Oc3cc2cc(c3O[C@@H]2O[C@H](CO)[C@@H](O)[C@H](O)[C@H]2O[C@H]2C[C@](C)(N)[C@H](O)[C@H](C)O2)Oc2ccc(cc2Cl)[C@H]1O [Vancomycin, vancomycin]
- MIC (Enterococcus faecalis [1]; Enterococcus faecalis, ATCC29212, Enterococcus faecalis Micromyx # 101, VSE, CLSI QC strain (ATCC 29212)): 4 µg/mL (≈ 2.76 µM)
- MIC (Enterococcus faecalis [1]; Enterococcus faecalis, Enterococcus faecalis Micromyx # 413, LZD^R from res. dev. or other): 2 µg/mL (≈ 1.38 µM)
- MIC (Enterococcus faecalis [1]; Enterococcus faecalis, Enterococcus faecalis Micromyx # 486, Van A): > 128 µg/mL
- MIC (Enterococcus faecalis [1]; Enterococcus faecalis, Enterococcus faecalis Micromyx # 1088, Van B): 128 µg/mL (≈ 88.3 µM)
- MIC ([2]; Staphylococcus epidermidis): 2 µg/mL (≈ 1.38 µM)
- MIC ([2]; Staphylococcus epidermidis, MRSE): 4 µg/mL (≈ 2.76 µM)
- MIC (Enterococcus faecium; Enterococcus faecium, Enterococcus faecium Micromyx # 750, Van^S): 1 µg/mL (≈ 0.69 µM)
- MIC (Enterococcus faecium; Enterococcus faecium, Enterococcus faecium Micromyx # 752, Van A): > 128 µg/mL
- MIC (Enterococcus faecium; Enterococcus faecium, Enterococcus faecium Micromyx # 1120, Van B): 32 µg/mL (≈ 22.1 µM)
- MIC (Enterococcus faecium; Enterococcus faecium, Enterococcus faecium Micromyx # 1721, DAP^R): > 128 µg/mL
- MIC (Staphylococcus aureus [3]; Staphylococcus aureus, ATCC 29213 / MSSA, Staphylococcus aureus Micromyx # 100, MSSA, CLSI QC strain (ATCC 29213)): 2 µg/mL (≈ 1.38 µM)
- MIC (Staphylococcus aureus [3]; Staphylococcus aureus, MRSA, Staphylococcus aureus Micromyx # 1004, MRSA, FA^R): 1 µg/mL (≈ 0.69 µM)
- MIC (Staphylococcus aureus [3]; Staphylococcus aureus, MRSA, Staphylococcus aureus Micromyx # 1730, Community-acquired MRSA): 2 µg/mL (≈ 1.38 µM)
- MIC (Staphylococcus aureus [3]; Staphylococcus aureus, MSSA, Staphylococcus aureus Micromyx # 1002, MSSA, macrolide^R): 1 µg/mL (≈ 0.69 µM)
- MIC (Staphylococcus aureus [3]; Staphylococcus aureus, Staphylococcus aureus Micromyx # 106, RA^R): 1 µg/mL (≈ 0.69 µM)
- MIC (Staphylococcus aureus [3]; Staphylococcus aureus, Staphylococcus aureus Micromyx # 1016, FA^R): 1 µg/mL (≈ 0.69 µM)
- MIC (Staphylococcus aureus [3]; Staphylococcus aureus, Staphylococcus aureus Micromyx # 1651, LZD^R clinical isolate): 1 µg/mL (≈ 0.69 µM)
- MIC (Staphylococcus aureus [3]; Staphylococcus aureus, Staphylococcus aureus Micromyx # 1727, GM^R): 1 µg/mL (≈ 0.69 µM)
- MIC (Staphylococcus aureus [3]; Staphylococcus aureus, Staphylococcus aureus Micromyx # 1731, CHL^R): 1 µg/mL (≈ 0.69 µM)
- MIC (Staphylococcus aureus [3]; Staphylococcus aureus, VISA, Staphylococcus aureus Micromyx # 1723, VISA): 8 µg/mL (≈ 5.52 µM)
- MIC (Streptococcus pneumoniae; Streptococcus pneumoniae, Streptococcus pneumoniae Micromyx # 374, Wild type): 0.5 µg/mL (≈ 0.345 µM)
- MIC (Streptococcus pneumoniae; Streptococcus pneumoniae, Streptococcus pneumoniae Micromyx # 375, parC, gyrB): 0.5 µg/mL (≈ 0.345 µM)
- MIC (Streptococcus pneumoniae; Streptococcus pneumoniae, Streptococcus pneumoniae Micromyx # 376, parC, gyrA): 0.25 µg/mL (≈ 0.173 µM)
- MIC (Streptococcus pneumoniae; Streptococcus pneumoniae, Streptococcus pneumoniae Micromyx # 379, parC, gyrA, gyrB): 0.5 µg/mL (≈ 0.345 µM)
- MIC (Streptococcus pneumoniae; Streptococcus pneumoniae, Streptococcus pneumoniae Micromyx # 927, mef(A)): 0.5 µg/mL (≈ 0.345 µM)
- MIC (Streptococcus pneumoniae; Streptococcus pneumoniae, Streptococcus pneumoniae Micromyx # 928, erm(B)): 0.5 µg/mL (≈ 0.345 µM)
- MIC (Streptococcus pyogenes; Streptococcus pyogenes): 0.5 µg/mL (≈ 0.345 µM)
- MIC (Streptococcus pyogenes; [6]): 0.5 µg/mL (≈ 0.345 µM)
- MIC, CLSI Recommended Range (Enterococcus faecalis [4]): 1 to 4 µg/mL
- MIC, CLSI Recommended Range (Staphylococcus aureus [5]): 0.5 to 2 µg/mL

Molecule: Empedopeptin
- MIC (Enterococcus faecalis [1]; Enterococcus faecalis Micromyx # 101, VSE, CLSI QC strain (ATCC 29212)): 4 µg/mL
- MIC (Enterococcus faecalis [1]; Enterococcus faecalis Micromyx # 413, LZD^R from res. dev. or other): 8 µg/mL
- MIC (Enterococcus faecalis [1]; Enterococcus faecalis Micromyx # 486, Van A): 8 µg/mL
- MIC (Enterococcus faecalis [1]; Enterococcus faecalis Micromyx # 1088, Van B): 16 µg/mL
- MIC ([2]; Staphylococcus epidermidis Micromyx # 108, MRSE): 8 µg/mL
- MIC ([2]; Staphylococcus epidermidis Micromyx # 835, MSSE): 8 µg/mL
- MIC (Enterococcus faecium; Enterococcus faecium Micromyx # 750, Van^S): 8 µg/mL
- MIC (Enterococcus faecium; Enterococcus faecium Micromyx # 752, Van A): 16 µg/mL
- MIC (Enterococcus faecium; Enterococcus faecium Micromyx # 1120, Van B): 16 µg/mL
- MIC (Enterococcus faecium; Enterococcus faecium Micromyx # 1721, DAP^R): 32 µg/mL
- MIC (Staphylococcus aureus [3]; Staphylococcus aureus Micromyx # 100, MSSA, CLSI QC strain (ATCC 29213)): 4 µg/mL
- MIC (Staphylococcus aureus [3]; Staphylococcus aureus Micromyx # 106, RA^R): 0.5 µg/mL
- MIC (Staphylococcus aureus [3]; Staphylococcus aureus Micromyx # 1002, MSSA, macrolide^R): 4 µg/mL
- MIC (Staphylococcus aureus [3]; Staphylococcus aureus Micromyx # 1004, MRSA, FA^R): 8 µg/mL
- MIC (Staphylococcus aureus [3]; Staphylococcus aureus Micromyx # 1016, FA^R): 8 µg/mL
- MIC (Staphylococcus aureus [3]; Staphylococcus aureus Micromyx # 1651, LZD^R clinical isolate): 4 µg/mL
- MIC (Staphylococcus aureus [3]; Staphylococcus aureus Micromyx # 1723, VISA): 4 µg/mL
- MIC (Staphylococcus aureus [3]; Staphylococcus aureus Micromyx # 1727, GM^R): 8 µg/mL
- MIC (Staphylococcus aureus [3]; Staphylococcus aureus Micromyx # 1730, Community-acquired MRSA): 4 µg/mL
- MIC (Staphylococcus aureus [3]; Staphylococcus aureus Micromyx # 1731, CHL^R): 4 µg/mL
- MIC (Streptococcus pneumoniae; Streptococcus pneumoniae Micromyx # 374, Wild type): 1 µg/mL
- MIC (Streptococcus pneumoniae; Streptococcus pneumoniae Micromyx # 375, parC, gyrB): 2 µg/mL
- MIC (Streptococcus pneumoniae; Streptococcus pneumoniae Micromyx # 376, parC, gyrA): 2 µg/mL
- MIC (Streptococcus pneumoniae; Streptococcus pneumoniae Micromyx # 379, parC, gyrA, gyrB): 2 µg/mL
- MIC (Streptococcus pneumoniae; Streptococcus pneumoniae Micromyx # 927, mef(A)): <0.12 µg/mL
- MIC (Streptococcus pneumoniae; Streptococcus pneumoniae Micromyx # 928, erm(B)): 0.5 µg/mL
- MIC range (Streptococcus pneumoniae; all strains of S. pneumoniae): ≦0.12-2 μg/mL
- MIC (Streptococcus pyogenes; [6]): ≦0.12 μg/mL
- MIC (Streptococcus pyogenes; Streptococcus pyogenes Micromyx # 985, Susceptible): ≦0.12 μg/mL
- MIC (Streptococcus pyogenes; both S. pyogenes test strains (including the macrolide-resistant strain)): ≤ 0.12 µg/mL
- range of MIC values (Enterococci; all strains tested): 4 to 32 µg/mL
- MIC, most strains inhibited (Enterococci; most strains): 8 to 16 µg/mL
- MIC values in the range (staphylococci; all strains tested): 0.5 to 8 µg/mL
- MIC, majority of strains inhibited (staphylococci; majority of strains): 4 to 8 µg/mL

From patent publication US20090124539A1, “Methods of treating infection” (priority 2007, published 2009)
